Entries after “also recorded” stand apart in the source; their conditions may differ.
Test system: T1, RelA binding to 70S initiation complexes
T1 construct: made in house
Assay: Spin down assay of RelA binding to 70S initiation complexes
Set-up: species or system Escherichia coli
Details: 500 μM compound; 2 μM RelA, 1 μM 70S IC programmed with mRNA(MF), with or without tRNAPhe
Procedure: Figure 4 Functional studies of DR-M014 and DR-4250 with programmed ribosomal complexes. (a,b) Inhibition of RelA activated by starved ribosomal complexes containing deacylated A-site tRNA^Phe. The reaction mixture contained 30 nM RelA, 0.5 μM 70S, 2 μM tRNA^Phe, 2 μM tRNAi^Met, 2 μM mRNA(MF), 100 μM ppGpp, 0.3 mM [^3H] GDP and 1 mM ATP. The experiments were performed in HEPES:Polymix buffer with 5 mM Mg^2+. Error bars represent standard deviations of linear regression estimates, each experiment was performed at least three times. […] Reaction mixture containing combinations of 2 μM RelA, 1 μM 70S initiation complexes programmed with mRNA(MF), 3 μM deacylated tRNA^Phe and test compounds at 500 μM was preincubated at 37 °C for 15 minutes prior to loading 50 μl samples on top of a 50 μl 30% sucrose cushion. After centrifugation for 25 minutes (70,000 r.p.m. at 12 °C) the supernatants were quickly aspirated, the pellets resuspended in 20 μl of SDS loading buffer, and the proteins resolved on 10% SDS-PAGE gel.
The ppGpp-analogues reported earlier promote RelA association with 70S ribosome[25][26] and are, therefore, promising tools for generating stable 70S:RelA complexes for structural investigations. […]
3', 300 μM 3H-GDP, 100 μM ppGpp was pre-incubated at 37° C for 2 min and then reaction started by addition of 1 mM ATP, time points (5 μl) taken, quenched with formic acid and analyzed by TLC. […]

Nc1nc2c(ncn2C2CCN(C(=O)P(=O)(O)O)CC2)c(=O)[nH]1 [DR-M014]
Effect on RelA binding to 70S initiation complexes (in words): promote RelA binding to 70S initiation complexes; also recorded: significantly promotes RelA binding

From PMC5291098, “Molecular mutagenesis of ppGpp: turning a RelA activator into an inhibitor” (Scientific Reports, 2017)
